Measured values: ChEMBL document CHEMBL1938391, “Design and synthesis of novel photoaffinity probes for study of the target proteins of oleanolic acid” (Bioorg Med Chem Lett, 2012)

Biological target: T1, Glycogen phosphorylase, muscle form (Oryctolagus cuniculus, UniProt P00489)
T1 sequence (P00489 whole entry): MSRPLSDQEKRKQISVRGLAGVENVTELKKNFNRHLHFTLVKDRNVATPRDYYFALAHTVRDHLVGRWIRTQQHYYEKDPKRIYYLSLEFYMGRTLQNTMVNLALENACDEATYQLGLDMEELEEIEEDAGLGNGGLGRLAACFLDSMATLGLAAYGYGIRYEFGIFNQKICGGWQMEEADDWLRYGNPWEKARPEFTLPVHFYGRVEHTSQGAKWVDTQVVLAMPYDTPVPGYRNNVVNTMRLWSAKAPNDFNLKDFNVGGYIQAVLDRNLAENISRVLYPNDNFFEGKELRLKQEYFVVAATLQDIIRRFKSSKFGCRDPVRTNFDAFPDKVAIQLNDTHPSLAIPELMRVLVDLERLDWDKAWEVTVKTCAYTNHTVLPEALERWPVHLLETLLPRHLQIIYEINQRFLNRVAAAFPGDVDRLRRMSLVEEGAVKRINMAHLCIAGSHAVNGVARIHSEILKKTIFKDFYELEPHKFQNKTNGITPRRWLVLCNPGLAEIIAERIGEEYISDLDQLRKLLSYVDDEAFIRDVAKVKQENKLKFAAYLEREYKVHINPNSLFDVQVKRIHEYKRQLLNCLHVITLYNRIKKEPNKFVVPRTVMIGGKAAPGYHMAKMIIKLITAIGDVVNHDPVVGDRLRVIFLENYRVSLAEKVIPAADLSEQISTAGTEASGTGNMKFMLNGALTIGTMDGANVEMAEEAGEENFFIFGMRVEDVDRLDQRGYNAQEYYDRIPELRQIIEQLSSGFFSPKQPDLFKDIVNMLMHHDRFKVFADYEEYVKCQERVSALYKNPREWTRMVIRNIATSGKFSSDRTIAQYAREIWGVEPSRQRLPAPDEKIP
Assay: Inhibition of rabbit muscle glycogen phosphorylase a assessed as release of phosphate from glucose-1-phosphate after 25 mins using malachite green staining

IC50 | Compound
41.1 µM | CC1(C)CC[C@]2(C(=O)O)CC[C@]3(C)C(=CC[C@@H]4[C@@]5(C)CC[C@H](OC(=O)COCCOCCNC(=O)c6ccc(C(=O)c7ccc(NC(=O)CCCC[C@@H]8SC[C@@H]9NC(=O)N[C@@H]98)cc7)cc6)C(C)(C)[C@@H]5CC[C@]43C)[C@@H]2C1
115 µM | CC1(C)CC[C@]2(C(=O)O)CC[C@]3(C)C(=CC[C@@H]4[C@@]5(C)CC[C@H](OC(=O)COCCOCCNC(=O)c6ccc(C(=O)c7ccc(NC(=O)CN=[N+]=[N-])cc7)cc6)C(C)(C)[C@@H]5CC[C@]43C)[C@@H]2C1
